These results are taken from patent US9840475B2, “N-(substituted)-5-fluoro-4-imino-3-methyl-2-oxo-3,4-dihydropyrimidine-1(2H)-carboxamide derivatives” (Adama Makhteshim Ltd., priority 2012, dated 2017).

Each structure is given as a SMILES string. Like-named read-outs stand apart in the source and are kept apart here.

Data set [1] has as its system Mycosphaerella graminicola; anamorph: Septoria tritici; Bayer code SEPTTR. Description: Evaluation of fungicidal activity: leaf blotch of wheat (SEPTTR), disease control on wheat plants. The conditions noted are these: Zymoseptoria tritici. It is filed as in vivo. How it is done: Evaluation of Fungicidal Activity: Leaf Blotch of Wheat (Mycosphaerella graminicola; anamorph: Septoria tritici; Bayer code […]) Wheat plants (variety Yuma) were grown from seed in a greenhouse in 50% mineral soil/50% soil-less Metro mix until the first leaf was fully emerged, with 7-10 seedlings per pot. These plants were inoculated with an aqueous spore suspension of Septoria tritici either prior to or after fungicide treatments. After inoculation the plants were kept in 100% relative humidity (one day in a dark dew chamber followed by two to three days in a lighted dew chamber) to permit spores to germinate and infect the leaf. The plants were then transferred to a greenhouse for disease to develop. The following table presents the activity of typical compounds of the present disclosure when evaluated in these experiments. The effectiveness of the test compounds in controlling disease was determined by assessing the severity of disease on treated plants, then converting the severity to percent control based on the level of disease on untreated, inoculated plants.

Setting [2] is: 24 h, 100 ppm, one-day protectant, wheat plants (variety Yuma), percent control vs untreated, inoculated plants, read-out: SEPTTR 100 PPM 1DP (One-Day Protectant activity, % disease control rating).
[3] abbreviates: 72 h, 100 ppm, three-day curative, wheat plants (variety Yuma), percent control vs untreated, inoculated plants, read-out: SEPTTR 100 PPM 3DC (Three-Day Curative activity, % disease control rating).
The mark [4] stands for this setting: 24 h, read-out: SEPTTR 100 PPM 1DP (One-Day Protectant activity, % disease control rating).
[5] abbreviates: 72 h, read-out: SEPTTR 100 PPM 3DC (Three-Day Curative activity, % disease control rating).

For `Cn1c(=N)c(F)cn(C(=S)Nc2ccc(Cl)cc2)c1=O` [Compound 6, N-(4-chlorophenyl)-5-fluoro-4-imino-3-methyl-2-oxo-3,4-dihydropyrimidine-1(2H)-carbothioamide], the pest or weed control at 100 ppm in data set [1] (setting [2]) and in data set [1] (setting [3]) was 76 to 100% throughout.

Compound `COc1ccccc1NC(=O)n1cc(F)c(=N)n(C)c1=O` [Compound 9] gave a melting point of 168.9 to 170 °C. Moreover, the pest or weed control at 100 ppm in data set [1] (setting [2]) is 26 to 50%. The pest or weed control at 100 ppm in data set [1] (setting [3]) fell in the range of 76 to 100%.

With `Cn1c(=N)c(F)cn(C(=O)Nc2cc(F)cc(F)c2)c1=O` [Compound 3, N-(3,5-difluorophenyl)-5-fluoro-4-imino-3-methyl-2-oxo-3,4-dihydropyrimidine-1(2H)-carboxamide], the melting point fell in the range of 203 to 204.5 °C. For the same compound, the pest or weed control at 100 ppm in data set [1] (setting [2]) was 0 to 25%. The pest or weed control at 100 ppm in data set [1] (setting [3]) lay within 51 to 75%.

`Cn1c(=N)c(F)cn(C(=O)Nc2cccc(F)c2)c1=O` [Compound 12] registered a melting point of 197.5 to 199.4 °C. In data set [1] (setting [2]), the pest or weed control at 100 ppm lay within 51 to 75%. In data set [1] (setting [3]), the pest or weed control at 100 ppm lay in the range of 0 to 25%.

The compound `Cn1c(=N)c(F)cn(C(=O)Nc2ccc(F)cc2)c1=O` [Compound 13] registered a melting point of 194 to 196 °C. For the same compound, the pest or weed control at 100 ppm in data set [1] (setting [2]) is 0 to 25%. In data set [1] (setting [3]), the pest or weed control at 100 ppm lay in the range of 26 to 50%.

`Cc1cc(NC(=O)n2cc(F)c(=N)n(C)c2=O)c(C)cc1Cl` [Compound 20]: the melting point is 210 to 213 °C. The pest or weed control at 100 ppm in data set [1] (setting [2]) is 51 to 75%. For the same compound, the pest or weed control at 100 ppm in data set [1] (setting [3]) lay in the range of 26 to 50%.

Regarding `Cc1cccc(NC(=O)n2cc(F)c(=N)n(C)c2=O)c1` [Compound 10], the melting point is 188.5 to 192.4 °C. Moreover, the pest or weed control at 100 ppm in data set [1] (setting [2]) lay within 0 to 25%. Also, the pest or weed control at 100 ppm in data set [1] (setting [3]) was 51 to 75%.

`Cn1c(=N)c(F)cn(C(=O)Nc2cc(Cl)cc(Cl)c2)c1=O` [Compound 14] displayed a melting point of 210 to 213.1 °C. Further, the pest or weed control at 100 ppm in data set [1] (setting [4]) lay within 0 to 25%. Besides, the pest or weed control at 100 ppm in data set [1] (setting [5]) lay within 0 to 25%.

As to `Cn1c(=N)c(F)cn(C(=S)Nc2cc(Cl)cc(Cl)c2)c1=O` [Compound 22], the pest or weed control at 100 ppm was 51 to 75% in data set [1] (setting [2]) and 26 to 50% in data set [1] (setting [3]).

The compound `Cc1ccc(NC(=O)n2cc(F)c(=N)n(C)c2=O)cc1` [Compound 1] had a melting point of 184.7 to 186.2 °C. In data set [1] (setting [2]), the pest or weed control at 100 ppm was in the range of 51 to 75%. Further, the pest or weed control at 100 ppm in data set [1] (setting [3]) is 0 to 25%.

For the compound `COc1cccc(NC(=O)n2cc(F)c(=N)n(C)c2=O)c1` [Compound 21], the melting point lay within 195.5 to 196.3 °C. The pest or weed control at 100 ppm in data set [1] (setting [2]) is 0 to 25%. Besides, the pest or weed control at 100 ppm in data set [1] (setting [3]) fell in the range of 0 to 25%.

`Cn1c(=N)c(F)cn(C(=O)Nc2ccc(Cl)cc2)c1=O` [Compound 2] gave a melting point of 199 to 200.8 °C. The pest or weed control at 100 ppm in data set [1] (setting [4]) was in the range of 26 to 50%. For the same compound, in data set [1] (setting [5]), the pest or weed control at 100 ppm was 0 to 25%.

In turn, `Cn1c(=N)c(F)cn(C(=O)Nc2cccs2)c1=O` [Compound 8] registered a melting point of 200.3 to 201.8 °C. Moreover, the pest or weed control at 100 ppm in data set [1] (setting [2]) lay in the range of 51 to 75%. Besides, the pest or weed control at 100 ppm in data set [1] (setting [3]) lay in the range of 76 to 100%.

The compound `Cn1c(=N)c(F)cn(C(=O)Nc2ccccc2)c1=O` yielded a melting point of 192.3 to 194.4 °C.

For `Cc1ccc(NC(=O)n2cc(F)c(=N)n(C)c2=O)cc1Cl` [Compound 16], the melting point is 192.9 to 193.5 °C. The pest or weed control at 100 ppm in data set [1] (setting [2]) fell in the range of 76 to 100%. In data set [1] (setting [3]), the pest or weed control at 100 ppm was 26 to 50%.

The compound `Cn1c(=N)c(F)cn(C(=O)Nc2ccc(C(F)(F)F)cc2)c1=O` [Compound 11] registered a melting point of 192.4 to 195.7 °C. Moreover, the pest or weed control at 100 ppm in data set [1] (setting [2]) was in the range of 0 to 25%. The pest or weed control at 100 ppm in data set [1] (setting [3]) was 0 to 25%.

Regarding `Cc1ccc(NC(=S)n2cc(F)c(=N)n(C)c2=O)cc1` [Compound 5], the pest or weed control at 100 ppm in data set [1] (setting [4]) and in data set [1] (setting [5]) was 76 to 100% each time.

In turn, `COc1ccc(NC(=O)n2cc(F)c(=N)n(C)c2=O)cc1` [Compound 4] displayed a melting point of 194.8 to 195.4 °C. Also, the pest or weed control at 100 ppm in data set [1] (setting [4]) lay in the range of 51 to 75%. For the same compound, in data set [1] (setting [5]), the pest or weed control at 100 ppm lay within 26 to 50%.

As for `Cn1c(=N)c(F)cn(C(=O)Nc2cccc(C#N)c2)c1=O` [Compound 15], the melting point fell in the range of 204.1 to 205.5 °C. The pest or weed control at 100 ppm in data set [1] (setting [2]) lay in the range of 0 to 25%. For the same compound, the pest or weed control at 100 ppm in data set [1] (setting [3]) lay within 26 to 50%.

Compound `Cn1c(=N)c(F)cn(C(=O)Nc2ccsc2)c1=O` [Compound 7] had a melting point of 194.2 to 195.2 °C. The pest or weed control at 100 ppm in data set [1] (setting [2]) lay in the range of 51 to 75%. Further, the pest or weed control at 100 ppm in data set [1] (setting [3]) is 76 to 100%.

Compound `Cn1c(=N)c(F)cn(C(=O)Nc2ccc(F)cc2Cl)c1=O` [Compound 18] returned a melting point of 203.6 to 205.5 °C. The pest or weed control at 100 ppm in data set [1] (setting [2]) was 51 to 75%. For the same compound, the pest or weed control at 100 ppm in data set [1] (setting [3]) was in the range of 0 to 25%.

Take `COc1ccc(NC(=O)n2cc(F)c(=N)n(C)c2=O)cc1F` [Compound 19]: the melting point is 194.3 to 196.3 °C. Also, the pest or weed control at 100 ppm in data set [1] (setting [2]) was in the range of 76 to 100%. Further, the pest or weed control at 100 ppm in data set [1] (setting [3]) was in the range of 26 to 50%.

In the case of `COc1ccc(OC)c(NC(=O)n2cc(F)c(=N)n(C)c2=O)c1` [Compound 17], the melting point was 168.3 to 169.6 °C. Moreover, in data set [1] (setting [2]), the pest or weed control at 100 ppm was in the range of 76 to 100%. In data set [1] (setting [3]), the pest or weed control at 100 ppm lay in the range of 76 to 100%.

For orientation: melting point means the temperature, or range, at which the solid turns liquid.
